Assay results from article PMC5218480 (PLoS ONE, 2017).

System: MV-4-11 cells
Assay: Gene expression microarray analysis (Affymetrix PrimeView) and GSEA
Assay type: cell-based, human
Set-up: RFU PODN (11730768_x_at) / Fold change /veh PODN (11730768_x_at) / RFU LINC00158 (11744669_a_at) / Fold change /veh LINC00158 (11744669_a_at) / RFU DUSP10 (11751237_a_at) / Fold change /veh DUSP10 (11751237_a_at) / RFU ID3 (11757404_x_at) / Fold change /veh ID3 (11757404_x_at) / RFU PLEKHG5 (11737974_s_at) / Fold change /veh PLEKHG5 (11737974_s_at) / RFU LRRC4B (11730491_at) / Fold change /veh LRRC4B (11730491_at) / RFU GIMAP4 (11747438_a_at) / Fold change /veh GIMAP4 (11747438_a_at) / RFU KRT8 (11758183_x_at) / Fold change /veh KRT8 (11758183_x_at) / RFU CNN1 (11734310_a_at) / Fold change /veh CNN1 (11734310_a_at) / RFU VPS37D (11726825_at) / Fold change /veh VPS37D (11726825_at) / RFU C10orf10 (11716522_x_at) / Fold change /veh C10orf10 (11716522_x_at) / RFU KIR2DL2 /// KIR2DL4 /// KIR2DL5A /// KIR2DL5B /// KIR2DS1 /// KIR2DS2 /// KIR2DS3 /// KIR2DS4 /// KIR3DL3 /// KIR3DL3 /// KIR3DS1 (11738374_at) / Fold change /veh KIR2DL2 /// KIR2DL4 /// KIR2DL5A /// KIR2DL5B /// KIR2DS1 /// KIR2DS2 /// KIR2DS3 /// KIR2DS4 /// KIR3DL3 /// KIR3DL3 /// KIR3DS1 (11738374_at) / RFU C1QL1 (11718748_at) / Fold change /veh C1QL1 (11718748_at) / RFU TMPRSS4 (11747572_a_at) / Fold change /veh TMPRSS4 (11747572_a_at) / RFU HAMP (11756126_x_at) / Fold change /veh HAMP (11756126_x_at) / RFU RNFT2 (11725882_a_at) / Fold change /veh RNFT2 (11725882_a_at) / RFU NR4A2 (11747474_a_at) / Fold change /veh NR4A2 (11747474_a_at) / RFU ABCC12 (11746883_a_at) / Fold change /veh ABCC12 (11746883_a_at) / RFU TMEM136 (11760407_x_at) / Fold change /veh TMEM136 (11760407_x_at) / RFU CLDN22 /// WWC2 (11732394_at) / Fold change /veh CLDN22 /// WWC2 (11732394_at) / RFU HLA-DPB1 (11760878_x_at) / Fold change /veh HLA-DPB1 (11760878_x_at) / RFU SPINT1 (11716480_a_at) / Fold change /veh SPINT1 (11716480_a_at) / RFU GAP43 (11754022_s_at) / Fold change /veh GAP43 (11754022_s_at) / RFU A4GNT (11735810_at) / Fold change /veh A4GNT (11735810_at) / RFU PRB3 (11715151_x_at) / Fold change /veh PRB3 (11715151_x_at) / RFU TUBB4B (11761932_at) / Fold change /veh TUBB4B (11761932_at) / RFU CAPN14 (11732068_a_at) / Fold change /veh CAPN14 (11732068_a_at) / RFU TMCC2 (11721928_a_at) / Fold change /veh TMCC2 (11721928_a_at) / RFU IRGQ (11745062_a_at) / Fold change /veh IRGQ (11745062_a_at) / RFU FAM174B (11720279_a_at) / Fold change /veh FAM174B (11720279_a_at) / RFU TMPRSS4 (11748680_a_at) / Fold change /veh TMPRSS4 (11748680_a_at) / RFU FAM212B (11763350_a_at) / Fold change /veh FAM212B (11763350_a_at) / RFU PLEKHG5 (11743358_a_at) / Fold change /veh PLEKHG5 (11743358_a_at) / RFU ZSCAN30 (11745921_a_at) / Fold change /veh ZSCAN30 (11745921_a_at) / RFU CMKLR1 (11741424_a_at) / Fold change /veh CMKLR1 (11741424_a_at) / RFU LOC101060620 /// MAPK8IP1 (11723275_at) / Fold change /veh LOC101060620 /// MAPK8IP1 (11723275_at) / RFU SPTSSB (11747773_x_at) / Fold change /veh SPTSSB (11747773_x_at) / RFU PRSS12 (11739890_at) / Fold change /veh PRSS12 (11739890_at) / RFU BIN1 (11741810_x_at) / Fold change /veh BIN1 (11741810_x_at) / RFU WNT11 (11732464_a_at) / Fold change /veh WNT11 (11732464_a_at) / RFU C10orf10 (11716521_a_at) / Fold change /veh C10orf10 (11716521_a_at) / RFU C5orf56 (11738089_at) / Fold change /veh C5orf56 (11738089_at) / RFU CYB561 (11721691_x_at) / Fold change /veh CYB561 (11721691_x_at) / RFU ANKRD19P (11752326_a_at) / Fold change /veh ANKRD19P (11752326_a_at) / RFU OR2T12 /// OR2T33 /// OR2T8 (11738714_s_at) / Fold change /veh OR2T12 /// OR2T33 /// OR2T8 (11738714_s_at) / RFU VCAN (11748164_a_at) / Fold change /veh VCAN (11748164_a_at) / RFU JSRP1 (11732532_at) / Fold change /veh JSRP1 (11732532_at) / RFU KRTAP10-11 (11738290_x_at) / Fold change /veh KRTAP10-11 (11738290_x_at) / RFU MYO3A (11730013_a_at) / Fold change /veh MYO3A (11730013_a_at) / RFU EBF3 (11725865_a_at) / Fold change /veh EBF3 (11725865_a_at) / RFU CAMK2N1 (11719241_x_at) / Fold change /veh CAMK2N1 (11719241_x_at) / RFU C5orf56 (11738088_a_at) / Fold change /veh C5orf56 (11738088_a_at) / RFU OLFML3 (11715873_a_at) / Fold change /veh OLFML3 (11715873_a_at) / RFU LOC100653217 /// NTM (11731650_a_at) / Fold change /veh LOC100653217 /// NTM (11731650_a_at) / RFU MAPK11 (11762145_a_at) / Fold change /veh MAPK11 (11762145_a_at) / RFU FIZ1 (11724087_x_at) / Fold change /veh FIZ1 (11724087_x_at) / RFU OASL (11726364_x_at) / Fold change /veh OASL (11726364_x_at) / RFU SOX15 (11748057_x_at) / Fold change /veh SOX15 (11748057_x_at) / RFU CD79A (11719716_a_at) / Fold change /veh CD79A (11719716_a_at) / RFU HIST1H1D (11736915_at) / Fold change /veh HIST1H1D (11736915_at) / RFU CASKIN2 (11723855_a_at) / Fold change /veh CASKIN2 (11723855_a_at) / RFU LOC730098 (11760151_x_at) / Fold change /veh LOC730098 (11760151_x_at) / RFU OR4N2 (11742367_at) / Fold change /veh OR4N2 (11742367_at) / RFU PRRT2 (11749266_a_at) / Fold change /veh PRRT2 (11749266_a_at) / RFU SNX32 (11753110_a_at) / Fold change /veh SNX32 (11753110_a_at) / RFU CDHR5 (11726645_a_at) / Fold change /veh CDHR5 (11726645_a_at) / RFU RCAN1 (11760418_a_at) / Fold change /veh RCAN1 (11760418_a_at) / RFU FAM167A (11723789_a_at) / Fold change /veh FAM167A (11723789_a_at) / RFU FAM26E (11764081_at) / Fold change /veh FAM26E (11764081_at) / RFU ISYNA1 (11749810_s_at) / Fold change /veh ISYNA1 (11749810_s_at) / RFU ACY1 (11761880_at) / Fold change /veh ACY1 (11761880_at) / RFU 11764098_at / Fold change /veh 11764098_at / RFU SAMD14 (11745864_x_at) / Fold change /veh SAMD14 (11745864_x_at) / RFU NPB (11741838_a_at) / Fold change /veh NPB (11741838_a_at) / RFU TMPRSS6 (11731388_a_at) / Fold change /veh TMPRSS6 (11731388_a_at) / RFU KRTAP10-2 (11738614_at) / Fold change /veh KRTAP10-2 (11738614_at) / RFU ARHGAP8 /// PRR5-ARHGAP8 (11727945_x_at) / Fold change /veh ARHGAP8 /// PRR5-ARHGAP8 (11727945_x_at) / RFU KRTAP5-7 /// NADSYN1 (11734609_at) / Fold change /veh KRTAP5-7 /// NADSYN1 (11734609_at) / RFU RASL12 (11751679_a_at) / Fold change /veh RASL12 (11751679_a_at) / RFU CDKN2B (11736163_a_at) / Fold change /veh CDKN2B (11736163_a_at) / RFU PRF1 (11729649_at) / Fold change /veh PRF1 (11729649_at) / RFU, ZNF638 /// ZNF638-IT1 / Fold change vs veh, ZNF638 /// ZNF638-IT1 / RFU, PANK3 / Fold change vs veh, PANK3 / RFU, SH3YL1 / Fold change vs veh, SH3YL1 / RFU, ZEB2 / Fold change vs veh, ZEB2 / RFU, NRIP1 / Fold change vs veh, NRIP1 / RFU, PTTG1IP / Fold change vs veh, PTTG1IP / RFU, CAPN2 / Fold change vs veh, CAPN2 / RFU, MED14 / Fold change vs veh, MED14 / RFU, SNORA58 / Fold change vs veh, SNORA58 / RFU, C1orf63 / Fold change vs veh, C1orf63 / RFU, LRRFIP1 / Fold change vs veh, LRRFIP1 / RFU, NDUFAF7 / Fold change vs veh, NDUFAF7 / RFU, SLC12A2 / Fold change vs veh, SLC12A2 / RFU, IBTK / Fold change vs veh, IBTK / RFU, ESF1 / Fold change vs veh, ESF1 / Fold change vs veh, TMEM50B / RFU, TAOK1 / Fold change vs veh, TAOK1 / RFU, ACBD3 / Fold change vs veh, ACBD3 / RFU, TMA16 / Fold change vs veh, TMA16 / RFU, RWDD3 / Fold change vs veh, RWDD3 / RFU, BCAT1 / Fold change vs veh, BCAT1 / RFU, EDEM3 / Fold change vs veh, EDEM3 / RFU, TMEM33 / Fold change vs veh, TMEM33 / RFU, WDR75 / Fold change vs veh, WDR75 / RFU, AHCTF1 / Fold change vs veh, AHCTF1 / RFU, TFRC / Fold change vs veh, TFRC / RFU, ZDHHC17 / Fold change vs veh, ZDHHC17 / RFU, NOM1 / Fold change vs veh, NOM1 / RFU, ARL8B / Fold change vs veh, ARL8B / RFU, ZBTB11 / Fold change vs veh, ZBTB11 / RFU, TAMM41 / Fold change vs veh, TAMM41 / RFU, KIAA1704 /// LOC100996395 / Fold change vs veh, KIAA1704 /// LOC100996395 / RFU, ING1 / Fold change vs veh, ING1 / RFU, TRMT61B / Fold change vs veh, TRMT61B / RFU, FUBP3 / Fold change vs veh, FUBP3 / RFU, TP53 / Fold change vs veh, TP53 / RFU, TNKS2 / Fold change vs veh, TNKS2 / RFU, ZFP14 / Fold change vs veh, ZFP14 / RFU, ACTR2 / Fold change vs veh, ACTR2 / RFU, PPP3R1 / Fold change vs veh, PPP3R1 / RFU, PIK3R1 / Fold change vs veh, PIK3R1 / RFU, HNRNPA1 / Fold change vs veh, HNRNPA1 / RFU, RNF170 / Fold change vs veh, RNF170 / RFU, ZNF28 / Fold change vs veh, ZNF28 / RFU, RNGTT / Fold change vs veh, RNGTT / RFU, OGT / Fold change vs veh, OGT / RFU, BRD1 / Fold change vs veh, BRD1 / RFU, MARS / Fold change vs veh, MARS / RFU, ZNF655 / Fold change vs veh, ZNF655 / RFU, FAHD1 / Fold change vs veh, FAHD1 / RFU, BDP1 / Fold change vs veh, BDP1 / RFU, LRRCC1 / Fold change vs veh, LRRCC1 / RFU, ARID1A / Fold change vs veh, ARID1A / RFU, ZNF146 / Fold change vs veh, ZNF146 / RFU, ZNF330 / Fold change vs veh, ZNF330 / RFU, GPN3 / Fold change vs veh, GPN3 / RFU, C9orf123 / Fold change vs veh, C9orf123 / RFU, N4BP2L2 / Fold change vs veh, N4BP2L2 / RFU, ARFIP1 / Fold change vs veh, ARFIP1 / RFU, FAM179B / Fold change vs veh, FAM179B / RFU, BCL10 / Fold change vs veh, BCL10 / RFU, UHRF1BP1L / Fold change vs veh, UHRF1BP1L / RFU, BET1 / Fold change vs veh, BET1 / RFU, CNOT2 / Fold change vs veh, CNOT2 / RFU, ZNF268 / Fold change vs veh, ZNF268 / Fold change vs veh, ZNF507 / RFU, DGCR2 / Fold change vs veh, DGCR2 / RFU, WDSUB1 / Fold change vs veh, WDSUB1 / Fold change vs veh, HSP90B1 /// MIR3652 / RFU, ADSS / Fold change vs veh, ADSS / RFU, GK / Fold change vs veh, GK / RFU, ZNF148 / Fold change vs veh, ZNF148 / RFU, TAF9 / Fold change vs veh, TAF9 / RFU, SLC1A5 / Fold change vs veh, SLC1A5 / RFU, SLMO2 / Fold change vs veh, SLMO2 / RFU, ABCC4 / Fold change vs veh, ABCC4 / RFU, LOC101060439 /// RAP1B / Fold change vs veh, LOC101060439 /// RAP1B / RFU, RFX7 / Fold change vs veh, RFX7 / RFU, GTPBP10 / Fold change vs veh, GTPBP10 / RFU, CNEP1R1 / Fold change vs veh, CNEP1R1 / RFU, BIVM-ERCC5 /// ERCC5 / Fold change vs veh, BIVM-ERCC5 /// ERCC5 / RFU, ILF3 / Fold change vs veh, ILF3 / RFU 11762660_at / Fold change /veh 11762660_at / RFU VCAN (11757783_s_at) / Fold change /veh VCAN (11757783_s_at) / RFU DDX43 (11728927_at) / Fold change /veh DDX43 (11728927_at) / RFU KRT8 (11758188_x_at) / Fold change /veh KRT8 (11758188_x_at) / RFU NKD1 (11759106_at) / Fold change /veh NKD1 (11759106_at) / RFU SRD5A1 (11742802_a_at) / Fold change /veh SRD5A1 (11742802_a_at) / RFU TPSAB1 /// TPSB2 (11721975_s_at) / Fold change /veh TPSAB1 /// TPSB2 (11721975_s_at) / RFU GSTM3 (11746129_a_at) / Fold change /veh GSTM3 (11746129_a_at) / RFU IL23R (11737362_x_at) / Fold change /veh IL23R (11737362_x_at) / RFU TMEM51 (11727254_a_at) / Fold change /veh TMEM51 (11727254_a_at) / RFU PIWIL2 (11732686_x_at) / Fold change /veh PIWIL2 (11732686_x_at) / RFU ORM1 (11744905_x_at) / Fold change /veh ORM1 (11744905_x_at) / RFU CCDC152 (11743942_at) / Fold change /veh CCDC152 (11743942_at) / RFU ECM1 (11717891_a_at) / Fold change /veh ECM1 (11717891_a_at) / RFU IL23R (11748794_a_at) / Fold change /veh IL23R (11748794_a_at) / RFU TNFAIP8L3 (11732012_x_at) / Fold change /veh TNFAIP8L3 (11732012_x_at) / RFU MBOAT4 (11741988_at) / Fold change /veh MBOAT4 (11741988_at) / RFU 11764193_at / Fold change /veh 11764193_at / RFU TMEM53 (11763286_at) / Fold change /veh TMEM53 (11763286_at) / RFU MAGEB2 (11727129_at) / Fold change /veh MAGEB2 (11727129_at) / RFU TMEM200A (11744735_a_at) / Fold change /veh TMEM200A (11744735_a_at) / RFU CCDC152 (11751479_a_at) / Fold change /veh CCDC152 (11751479_a_at) / RFU FAM211A (11726209_a_at) / Fold change /veh FAM211A (11726209_a_at) / RFU RGS16 (11746705_a_at) / Fold change /veh RGS16 (11746705_a_at) / RFU VCAN (11755009_s_at) / Fold change /veh VCAN (11755009_s_at) / RFU RHOB (11743442_s_at) / Fold change /veh RHOB (11743442_s_at) / RFU RGS16 (11720943_a_at) / Fold change /veh RGS16 (11720943_a_at) / RFU RGS16 (11720944_at) / Fold change /veh RGS16 (11720944_at) / RFU, VPS4B / Fold change vs veh, VPS4B / RFU, CREB1 / Fold change vs veh, CREB1 / RFU, DNAJC13 / Fold change vs veh, DNAJC13 / RFU, GNAQ / Fold change vs veh, GNAQ / RFU, CDK5R1 / Fold change vs veh, CDK5R1 / RFU, ZRANB3 / Fold change vs veh, ZRANB3 / RFU, CUL4A / Fold change vs veh, CUL4A / RFU, CCNY / Fold change vs veh, CCNY / RFU, UFL1 / Fold change vs veh, UFL1 / RFU, COG3 / Fold change vs veh, COG3 / RFU, DIAPH2 / Fold change vs veh, DIAPH2 / RFU, SKA2 / Fold change vs veh, SKA2 / RFU, AFF3 / Fold change vs veh, AFF3 / RFU, LMF1 / Fold change vs veh, LMF1 / RFU, IPO11 / Fold change vs veh, IPO11 / RFU, DFFB / Fold change vs veh, DFFB / RFU, FOXP1 / Fold change vs veh, FOXP1 / RFU, CARD8 / Fold change vs veh, CARD8 / RFU, STRN3 / Fold change vs veh, STRN3 / RFU, ADK / Fold change vs veh, ADK / RFU, RASSF2 / Fold change vs veh, RASSF2 / RFU, WIPF1 / Fold change vs veh, WIPF1 / RFU, LARP1B / Fold change vs veh, LARP1B / RFU, RASA1 / Fold change vs veh, RASA1 / RFU, RB1 / Fold change vs veh, RB1 / RFU, PPFIA1 / Fold change vs veh, PPFIA1 / RFU, MAT2A / Fold change vs veh, MAT2A / RFU, CCT5 / Fold change vs veh, CCT5 / RFU, WDR92 / Fold change vs veh, WDR92 / RFU, CUX1 / Fold change vs veh, CUX1 / RFU, TTC7A / Fold change vs veh, TTC7A / RFU, TMEM135 / Fold change vs veh, TMEM135 / RFU, DEPTOR / Fold change vs veh, DEPTOR / RFU, CPM / Fold change vs veh, CPM / RFU, DNAJB6 / Fold change vs veh, DNAJB6 / RFU, CACNA2D3 / Fold change vs veh, CACNA2D3 / RFU, DTX4 / Fold change vs veh, DTX4 / RFU, TFCP2 / Fold change vs veh, TFCP2 / RFU, GMCL1 /// GMCL1P1 / Fold change vs veh, GMCL1 /// GMCL1P1 / RFU, AEBP2 / Fold change vs veh, AEBP2 / RFU, SNHG1 /// SNORD22 /// SNORD25 /// SNORD26 /// SNORD27 /// SNORD28 /// SNORD29 /// SNORD31 / Fold change vs veh, SNHG1 /// SNORD22 /// SNORD25 /// SNORD26 /// SNORD27 /// SNORD28 /// SNORD29 /// SNORD31 / Fold change (Aza/veh), C12orf56 (ProbeSet 11735607_a_at) / Fold change (ACY-1035/veh), C12orf56 (ProbeSet 11735607_a_at) / Fold change (Aza/veh), FGFR1OP (ProbeSet 11751329_s_at) / Fold change (ACY-1035/veh), FGFR1OP (ProbeSet 11751329_s_at) / Fold change (Aza/veh), VPS36 (ProbeSet 11739960_a_at) / Fold change (ACY-1035/veh), VPS36 (ProbeSet 11739960_a_at) / RFU SYPL1 (11715823_x_at) / Fold change /veh SYPL1 (11715823_x_at) / RFU IGFBP7 (11715501_s_at) / Fold change /veh IGFBP7 (11715501_s_at) / RFU REEP3 (11722064_at) / Fold change /veh REEP3 (11722064_at) / RFU IGLL1 (11728026_x_at) / Fold change /veh IGLL1 (11728026_x_at): dose or concentration left out as unconfirmed
Conditions: MV-4-11 cells, 48 hours

Compound: Nc1ccc(-c2cccs2)cc1NC(=O)c1ccc2c(c1)cc(C1CC1)n2CCN1CCOCC1 [ACY-1035]
- Fold change /veh FIZ1 (11724087_x_at): 1.06
